Structures are written as SMILES.

The nature of series [1]: Electrochemical treatment of medium, removal rate of phenolic and furanic compounds. Format: physicochemical. Particulars: 0.5 g/L added to medium; for Removal rate: wt %. On the procedure:
In order to measure the removal rate of phenolic and furanic compounds, p-coumaric acid, ferulic acid, syringaldehyde and vanillin were selected as phenolic compounds and furfural and 5-hydroxymethylfurfural were selected as furanic compounds. After adding 0.5 g/L of each of the selected 6 inhibitors to a medium, electric current was flown at each optimum oxidation voltage and then removal rate was measured.
(§1) A potentiostat (WonA Tech, WMPG 1000) was used for the electrochemical treatment of the medium. Graphite felt was used as an electrode. Specifically, the electrochemical treatment was conducted for by 5 hours at an oxidation peak voltage of each fermentation inhibitor (800 mV for coumaric acid and ferulic acid, 2 V for syringaldehyde and vanillin, 1.8 V for furfural and 5-hydroxyfurfural). Then, the fermentation inhibitors were removed using such methods as gravitational sedimentation, centrifugation, membrane separation, etc. The percentage of the removal rate is wt %.
After the culturing was completed, the concentrations of phenolic and furanic compounds, sugars and acetic acid were measured for each culture. The concentration was analyzed by liquid chromatography (Agilent model 1200). The phenolic compounds were analyzed using a diode array detector and a Zorbax eclipse XDB-C18 column (150×4.6 mm, 3.5 μm). The sugars and acetic acid were analyzed using a refractive index detector and an Aminex HPX-87H column (300×7.8 mm). The growth of the microorganisms was analyzed by measuring absorbance at 600 nm with a spectrophotometer (UVmini-1240, Shimadzu). The concentration of butyric acid and butanol was analyzed using a gas chromatography system (Agilent technology 6890N Network GC system) equipped with a flame ionized detector and an HP-INNOWax column (30 m×250 μm×0.25 μm, Agilent Technologies).

The nature of series [2]: Cyclic voltammetry, oxidation peak voltage. The class given is physicochemical. On the procedure: First, the optimum voltage for removing each phenolic compound through the electrochemical treatment was determined by cyclic voltammetry. […] In FIG. 1, the abscissa represents voltage (V) and the ordinate represents current (A). […] This means that each of the phenolic compounds is removed by oxidation at the intrinsic voltage.
as §1

Series [3] has as its system Clostridium tyrobutyricum. Kind of series: Cellular growth of Clostridium tyrobutyricum (absorbance at 600 nm). Format: cell-based. Particulars: 0.5 g/L in medium, before electrochemical treatment, FIG. 2, read-out: inhibition of the growth of the microorganisms. An excerpt:
(§2) As a butyric acid fermentation medium, a medium containing 20 g of glucose, 5 g of yeast extract, 0.2 g of magnesium sulfate, 0.01 g of manganese sulfate, 0.01 g of ferric sulfate, 0.01 g of sodium chloride, 0.5 g of monopotassium phosphate (KH2PO4), 0.5 g of dipotassium phosphate (K2HPO4) and 2 g of ammonium acetate per 1 L of the medium was used. As a butanol fermentation medium, a medium containing 20 g of glucose, 1 g of yeast extract, 0.2 g of magnesium sulfate, 0.01 g of manganese sulfate, 0.01 g of ferric sulfate, 0.01 g of sodium chloride, 0.5 g of monopotassium phosphate (KH2PO4), 0.5 g of dipotassium phosphate (K2HPO4) and 2 g of ammonium acetate per 1 L of the medium was used. Each medium was gas-substituted with argon gas and sterilized at 121° C. for 15 minutes before the experiment. […]
(§3) After the culturing was completed, the concentrations of phenolic and furanic compounds, sugars and acetic acid were measured for each culture. The concentration was analyzed by liquid chromatography (Agilent model 1200). The phenolic compounds were analyzed using a diode array detector and a Zorbax eclipse XDB-C18 column (150×4.6 mm, 3.5 μm). The sugars and acetic acid were analyzed using a refractive index detector and an Aminex HPX-87H column (300×7.8 mm). The growth of the microorganisms was analyzed by measuring absorbance at 600 nm with a spectrophotometer (UVmini-1240, Shimadzu). […]

Series [4] deals with Clostridium tyrobutyricum. Kind of series: Production of butyric acid by Clostridium tyrobutyricum. The class given is cell-based. Particulars: 0.5 g/L in medium, after electrochemical treatment at optimum voltage, FIG. 3.
Source text: as §2, §3

Series [5] deals with Clostridium beijerinckii. Kind of series: Production of butanol by Clostridium beijerinckii. Format: cell-based. Particulars: 0.5 g/L in medium, after electrochemical treatment, FIG. 5.
Source text: as §2, §3

[6] abbreviates: 1st treatment, 5 hours at oxidation peak voltage.

`COc1cc(/C=C/C(=O)O)ccc1O` [Ferulic acid, ferulic acid]: the Post-treatment concentration in series [1] (setting [6]) came to 0.3475 g/L; in series [1] (2nd treatment), 0.1155 g/L. Also, the Removal rate worked out at 30.5% in series [1] (setting [6]) and 76.9% in series [1] (2nd treatment). This compound returned an oxidation peak voltage in series [2] of 800 mV.
Take `O=Cc1ccco1` [Furfural, furfural]: in series [1] (setting [6]), the Post-treatment concentration is reported as 0 g/L and the Removal rate was determined as 100%. Also, in series [1] (2nd treatment), the Post-treatment concentration was found to be 0 g/L and the Removal rate was determined as 100%. Further, in series [2], the oxidation peak voltage is 1.8 V.
On to `O=Cc1ccc(CO)o1` [HMF, 5-hydroxymethylfurfural], for which, in series [1] (setting [6]), the Post-treatment concentration is listed as 0 g/L and the Removal rate turned out to be 100%. In series [1] (2nd treatment), this compound displayed a Post-treatment concentration of 0 g/L and a Removal rate of 100%. In addition, the oxidation peak voltage in series [2] was 1.8 V.
Consider `COc1cc(C=O)cc(OC)c1O` [Syringaldehyde, syringaldehyde], for which, in series [1] (setting [6]), the Post-treatment concentration came to 0.109 g/L and the Removal rate amounted to 78.2%. In series [1] (2nd treatment), this compound came in with a Post-treatment concentration of 0.0265 g/L and a Removal rate of 94.7%. The oxidation peak voltage in series [2] is given as 2 V.
For `COc1cc(C=O)ccc1O` [Vanillin, vanillin] the same measures were 0.251 g/L, 49.8%, 0.089 g/L, 82.2% and 2 V.
`O=C(O)/C=C/c1ccc(O)cc1` [p-Coumaric acid, p-coumaric acid]: the figures for the Post-treatment concentration in series [1] (setting [6]) and in series [1] (2nd treatment) were 0.25 g/L and 0.11 g/L, respectively. Further, the Removal rate in series [1] (setting [6]) is given as 50.0%; in series [1] (2nd treatment), 78.0%. In series [2], this compound displayed an oxidation peak voltage of 800 mV. In addition, the inhibition at 500 µg/mL in series [3] is roughly 100%. For the same compound, the “toxicity reduced by the electrochemical treatment” value in series [4] is roughly 100%. In addition, in series [5], the “decrease in butanol production recovered by the electrochemical treatment” value was roughly 100%.

The inhibition is the drop in the measured response relative to a control, in per cent.

The values are drawn from patent publication US20160024535A1, “ELECTROCHEMICAL DETOXIFICATION METHOD OF WOOD-BASED HYDROLYSATE FOR PRODUCING BIOCHEMICALS OR BIOFUELS, AND DETOXIFIED WOOD-BASED HYDROLYSATE” (Korea Institute of Science and Technology, priority 2013, published 2016).
